The record followed here is patent US9284333B2, “Fused pyrroledicarboxamides and their use as pharmaceuticals” (SANOFI, priority 2012, dated 2016).

Each structure is given as a SMILES string.

This assay deals with Human TASK-1 channels (Homo sapiens (Human), UniProt O14649). Nature of the assay: Determination of the activity on the TASK-1 channel in Xenopus oocytes (two-microelectrode voltage clamp). The assay is classed as cell-based. The note with it: human TASK-1 expressed in Xenopus oocytes, room temperature; read-out: IC50 value for TASK-1 inhibition. In outline:
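Current during 500 ms pulses to 40 mV from a −90 mV hold was recorded in oocytes expressing human TASK-1 for two days after cRNA injection. Compounds were added cumulatively to the ND96 bath (pH 7.4, room temperature). IC50 came from dose-response fitting of inhibition relative to pre-compound current.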

As usually defined, the IC50 is the concentration at which inhibition is half-maximal.

Chain of Human TASK-1 channels (O14649 whole entry): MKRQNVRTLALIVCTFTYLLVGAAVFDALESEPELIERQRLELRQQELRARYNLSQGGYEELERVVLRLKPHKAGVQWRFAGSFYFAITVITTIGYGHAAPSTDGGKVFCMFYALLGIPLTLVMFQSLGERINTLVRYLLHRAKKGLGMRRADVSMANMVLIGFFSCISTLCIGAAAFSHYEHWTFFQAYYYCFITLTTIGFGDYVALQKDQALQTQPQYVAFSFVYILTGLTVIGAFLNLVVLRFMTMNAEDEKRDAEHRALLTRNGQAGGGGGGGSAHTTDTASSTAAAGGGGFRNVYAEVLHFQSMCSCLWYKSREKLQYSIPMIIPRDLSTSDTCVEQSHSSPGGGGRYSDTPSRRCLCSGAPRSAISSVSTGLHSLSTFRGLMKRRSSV

For the compound `CC[C@@H](NC(=O)c1cc(C(=O)NCc2cnccn2)n2c1COCC2)c1ccc(F)cc1Cl` [16no, 3,4-Dihydro-1H-pyrrolo[2,1-c][1,4]oxazine-6,8-dicarboxylic acid 8-{[(R)-1-(2-chloro-4-fluoro-phenyl)-propyl]-amide} 6-[(pyrazin-2-ylmethyl)-amide]], the half-inhibitory concentration (IC50) worked out at 170 nM.

As to `CC[C@@H](NC(=O)c1cc(C(=O)NC(C)c2ncccn2)n2c1COCC2)c1ccc(F)cc1Cl` (stereo partly drawn) [16np, 3,4-Dihydro-1H-pyrrolo[2,1-c][1,4]oxazine-6,8-dicarboxylic acid 8-{[(R)-1-(2-chloro-4-fluoro-phenyl)-propyl]-amide} 6-[(1-pyrimidin-2-yl-ethyl)-amide]], the IC50 amounted to 170 nM.

Regarding `CC[C@@H](NC(=O)c1cc(C(=O)N[C@H](C)c2cnccn2)n2c1COCC2)c1ccccc1Cl` [16nq, 3,4-Dihydro-1H-pyrrolo[2,1-c][1,4]oxazine-6,7-dicarboxylic acid 8-{[(R)-1-(2-chloro-phenyl)-propyl]-amide} 6-[((R)-1-pyrazin-2-yl-ethyl)-amide]], the half-maximal inhibitory concentration (IC50) worked out at 480 nM.

With `CC[C@@H](NC(=O)c1cc(C(=O)NC(C)c2ncccn2)n2c1COCC2)c1ccccc1Cl` (stereo partly drawn) [16nr, 3,4-Dihydro-1H-pyrrolo[2,1-c][1,4]oxazine-6,8-dicarboxylic acid 8-{[(R)-1-(2-chloro-phenyl)-propyl]-amide} 6-[(1-pyrimidin-2-yl-ethyl)-amide]], the IC50 came to 310 nM.

Regarding `CC[C@@H](NC(=O)c1cc(C(=O)NCc2ccc(F)cc2F)c2n1CCOC2)c1cnccn1` [16ns, 3,4-Dihydro-1H-pyrrolo[2,1-c][1,4]oxazine-6,8-dicarboxylic acid 8-(2,4-difluoro-benzylamide) 6-[((R)-1-pyrazin-2-yl-propyl)-amide]], the concentration for half-maximal inhibition (IC50) turned out to be 3100 nM.

For `CC[C@@H](NC(=O)c1cc(C(=O)NCc2ccc(F)cc2F)c2n1CCOC2)c1cccc(OC)n1` [16nt, 3,4-Dihydro-1H-pyrrolo[2,1-c][1,4]oxazine-6,8-dicarboxylic acid 8-(2,4-difluoro-benzylamide) 6-{[(R)-1-(6-methoxy-pyridin-2-yl)-propyl]-amide}], the IC50 was 670 nM.

For `C[C@H]1CCCN1C(=O)c1cc(C(=O)NCc2c(F)cccc2Cl)c2n1CCOC2` [16nu, 6-((S)-2-Methyl-pyrrolidine-1-carbonyl)-3,4-dihydro-1H-pyrrolo[2,1-c][1,4]oxazine-8-carboxylic acid 2-chloro-6-fluoro-benzylamide], the half-maximal inhibitory concentration (IC50) was 150 nM.

In the case of `CC[C@@H](NC(=O)c1cc(C(=O)N[C@H](C)c2ccc(F)cc2)c2n1CCOC2)c1ncccn1` [16nv, 3,4-Dihydro-1H-pyrrolo[2,1-c][1,4]oxazine-6,8-dicarboxylic acid 8-{[(R)-1-(4-fluoro-phenyl)-ethyl]-amide} 6-[((R)-1-pyrimidin-2-yl-propyl)-amide]], the half-inhibitory concentration (IC50) worked out at 170 nM.

As for `CC[C@H](NC(=O)c1cc(C(=O)N[C@H](C)c2ccc(F)cc2)c2n1CCOC2)c1ncccn1` [16nw, 3,4-Dihydro-1H-pyrrolo[2,1-c][1,4]oxazine-6,8-dicarboxylic acid 8-{[(R)-1-(4-fluoro-phenyl)-ethyl]-amide} 6-[((S)-1-pyrimidin-2-yl-propyl)-amide]], the concentration for half-maximal inhibition (IC50) was found to be 200 nM.

For the compound `CC[C@@H](NC(=O)c1cc(C(=O)N2CCC[C@@H]2C)n2c1COC(C)(C)C2)c1ccc(C#N)cc1` [16nx, 3,3-Dimethyl-6-((S)-2-methyl-pyrrolidine-1-carbonyl)-3,4-dihydro-1H-pyrrolo[2,1-c][1,4]oxazine-8-carboxylic acid [(R)-1-(4-cyano-phenyl)-propyl]-amide], the IC50 was 370 nM.

Consider `CC[C@@H](NC(=O)c1cc(C(=O)N2CCC[C@H]2C)n2c1COCC2)c1ccc(C(F)(F)F)nc1` [16ny, 6-((R)-2-Methyl-pyrrolidine-1-carbonyl)-3,4-dihydro-1H-pyrrolo[2,1-c][1,4]oxazine-8-carboxylic acid [(R)-1-(6-trifluoromethyl-pyridin-3-yl)-propyl]-amide], for which the IC50 was determined as 2800 nM.
